Measured values: patent publication US20210145764A1, “COMPOSITIONS OF CANNABIDIOL (CBD), AND/OR POLYPHENOLS, AND METHODS FOR THE PREVENTION AND/OR TREATMENT OF SKIN, MUSCLE, NERVE AND INFLAMMATORY DISORDERS, AND BIOLOGICAL FACTORS AND FUNCTIONS IN MAMMALS” (BRIGHAM YOUNG UNIVERSITY, priority 2019, published 2021)

Tests used:
[1] = biological target: T1, Estrogen Related Receptor gamma (γ) (Homo sapiens, UniProt P62508); settings: cited from earlier work
T1 sequence (P62508 1-458): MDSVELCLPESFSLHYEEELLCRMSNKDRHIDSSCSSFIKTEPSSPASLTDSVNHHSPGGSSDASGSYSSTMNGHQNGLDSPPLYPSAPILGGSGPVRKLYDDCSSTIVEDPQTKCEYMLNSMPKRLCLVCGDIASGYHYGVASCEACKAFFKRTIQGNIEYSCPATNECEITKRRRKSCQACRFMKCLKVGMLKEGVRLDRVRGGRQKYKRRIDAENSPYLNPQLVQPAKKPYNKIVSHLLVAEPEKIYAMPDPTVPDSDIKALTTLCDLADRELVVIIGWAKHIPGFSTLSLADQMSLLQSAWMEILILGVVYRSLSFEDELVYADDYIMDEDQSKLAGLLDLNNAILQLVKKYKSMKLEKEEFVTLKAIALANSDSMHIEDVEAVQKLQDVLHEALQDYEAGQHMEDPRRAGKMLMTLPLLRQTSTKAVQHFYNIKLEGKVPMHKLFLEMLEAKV

[2] = 12 weeks; Equol alone at 0.3%; cited from earlier work
[3] = test system: full epidermal/dermal thickness human skin cultures; assay: Histology (hematoxylin/eosin) of human skin cultures; assay type: cell-based; settings: 0.3% CBD; 0.5% equol; combination; 40× magnification
Procedure: FIG. 14 depicts photomicrographs (40× magnification) of full epidermal/dermal thickness human skin cultures. […] Standard bar=50 microns.
In human skin gene expression analysis full epidermal/dermal thickness human skin cultures were used.
The skin cultures were treated with: (a) transcutol vehicle; (b) 0.3% CBD; and (c) 0.5% equol and 0.3% CDB plus 0.5% equol.

[4] = test system: human skin biomarkers; settings: cited from earlier work
[5] = test system: dermal layer (only) of the human skin cultures; assay: MTT assay viability, dermal layer (only); assay type: cell-based
Excerpt: Testing CBD and equol at various concentration to determine tissue/cell viability as indicated on the y- and x-axis and figure labels for subsequent human skin gene analysis. Triton X-100 treatment (cytotoxic control).

[6] = test system: full thickness epidermal/dermal human skin cultures; assay: MTT assay cell viability, full thickness skin cultures; assay type: cell-based
Excerpt: Testing CBD and equol at various concentration to determine tissue/cell viability as indicated on the y- and x-axis and figure labels for subsequent human skin gene analysis. Triton X-100 treatment (cytotoxic control). Note: The MTT assay is a colorimetric assay, which has been validated for measuring cell metabolic activity. It is based on the ability of nicotinamide adenine dinucleotide phosphate (NADPH)-dependent cellular oxidoreductase enzymes to reduce the tetrazolium dye MTT to its insoluble formazan, which has a purple color. The absorbance of this colored solution can be quantified by measuring at a certain wavelength (usually between 500 and 600 nm) by a spectrophotometer. The MTT method is one of the most widely used methods to analyze cell proliferation and viability in human skin cells (Triglia et al., 1991).

[7] = single topical dose, human skin; cited from earlier work
[8] = cited from earlier work
[9] = test system: MMPs; settings: cited from earlier work
[10] = biological target: T2, 5α-Reductase Enzyme (type 1 in skin) (Homo sapiens, UniProt P18405); settings: cited from earlier work
T2 sequence (P18405 1-259): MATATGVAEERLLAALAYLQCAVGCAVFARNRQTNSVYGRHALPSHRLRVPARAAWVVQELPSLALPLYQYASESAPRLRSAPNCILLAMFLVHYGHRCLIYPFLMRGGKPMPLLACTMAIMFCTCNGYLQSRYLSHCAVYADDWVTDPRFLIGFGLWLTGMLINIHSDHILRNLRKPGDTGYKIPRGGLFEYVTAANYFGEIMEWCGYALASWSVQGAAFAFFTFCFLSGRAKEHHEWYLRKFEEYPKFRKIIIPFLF

[11] = test system: NFkappB; settings: cited from earlier work
[12] = test system: Collagen; settings: cited from earlier work
[13] = test system: TIMP1; settings: cited from earlier work
[14] = test system: Elastase; settings: cited from earlier work
[15] = test system: Inflammatory Molecules; settings: cited from earlier work
[16] = biological target: Estrogen Receptor Beta (β) (Homo sapiens, UniProt Q92731); settings: cited from earlier work; for Ki: read-out: Binds Estrogen Receptor Beta (β), Ki
Estrogen Receptor Beta (β), sequence (Q92731 whole entry, species assumed): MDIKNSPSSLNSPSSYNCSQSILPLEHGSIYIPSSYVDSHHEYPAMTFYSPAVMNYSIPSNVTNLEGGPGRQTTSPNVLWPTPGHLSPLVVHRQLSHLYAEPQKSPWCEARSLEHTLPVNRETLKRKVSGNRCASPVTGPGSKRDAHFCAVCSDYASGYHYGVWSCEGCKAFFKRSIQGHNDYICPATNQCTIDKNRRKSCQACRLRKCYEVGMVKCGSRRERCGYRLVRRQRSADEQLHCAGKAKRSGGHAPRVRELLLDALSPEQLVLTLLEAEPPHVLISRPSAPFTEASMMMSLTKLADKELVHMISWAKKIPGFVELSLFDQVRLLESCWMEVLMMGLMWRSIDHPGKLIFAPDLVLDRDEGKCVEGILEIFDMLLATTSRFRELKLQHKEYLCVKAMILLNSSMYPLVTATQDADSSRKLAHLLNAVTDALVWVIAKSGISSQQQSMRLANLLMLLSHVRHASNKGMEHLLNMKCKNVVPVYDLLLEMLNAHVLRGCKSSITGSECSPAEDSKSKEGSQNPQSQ

[17] = test system: Elastin; settings: cited from earlier work
[18] = cited from earlier work; remark: listed apart in the source
[19] = biological target: T3, Nrf2 (Homo sapiens, UniProt Q16236); settings: cited from earlier work
T3 sequence (Q16236 1-605): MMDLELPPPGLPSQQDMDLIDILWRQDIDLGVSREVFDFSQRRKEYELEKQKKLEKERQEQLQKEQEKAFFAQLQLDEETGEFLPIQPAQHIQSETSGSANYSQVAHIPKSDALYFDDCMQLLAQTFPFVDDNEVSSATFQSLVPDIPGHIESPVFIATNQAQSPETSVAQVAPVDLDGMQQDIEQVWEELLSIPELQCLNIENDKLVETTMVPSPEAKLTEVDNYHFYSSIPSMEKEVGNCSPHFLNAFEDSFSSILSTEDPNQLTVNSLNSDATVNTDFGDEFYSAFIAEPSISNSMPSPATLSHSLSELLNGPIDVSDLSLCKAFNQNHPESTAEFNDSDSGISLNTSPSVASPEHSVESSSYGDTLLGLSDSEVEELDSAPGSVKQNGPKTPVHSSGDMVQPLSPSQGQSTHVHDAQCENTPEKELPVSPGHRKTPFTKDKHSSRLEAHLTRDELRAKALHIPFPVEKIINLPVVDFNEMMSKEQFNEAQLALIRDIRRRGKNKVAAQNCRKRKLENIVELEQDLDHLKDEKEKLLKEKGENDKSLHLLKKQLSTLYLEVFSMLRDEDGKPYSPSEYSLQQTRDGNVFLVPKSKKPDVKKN

[20] = test system: AP-1; settings: same concentrations; cited from earlier work
[21] = test system: Growth Factors; settings: cited from earlier work
[22] = biological target: Estrogen Receptor Alpha (α) (Homo sapiens, UniProt P03372); settings: cited from earlier work; for Ki: read-out: Binds Estrogen Receptor Alpha (α), Ki
Estrogen Receptor Alpha (α), sequence (P03372 whole entry): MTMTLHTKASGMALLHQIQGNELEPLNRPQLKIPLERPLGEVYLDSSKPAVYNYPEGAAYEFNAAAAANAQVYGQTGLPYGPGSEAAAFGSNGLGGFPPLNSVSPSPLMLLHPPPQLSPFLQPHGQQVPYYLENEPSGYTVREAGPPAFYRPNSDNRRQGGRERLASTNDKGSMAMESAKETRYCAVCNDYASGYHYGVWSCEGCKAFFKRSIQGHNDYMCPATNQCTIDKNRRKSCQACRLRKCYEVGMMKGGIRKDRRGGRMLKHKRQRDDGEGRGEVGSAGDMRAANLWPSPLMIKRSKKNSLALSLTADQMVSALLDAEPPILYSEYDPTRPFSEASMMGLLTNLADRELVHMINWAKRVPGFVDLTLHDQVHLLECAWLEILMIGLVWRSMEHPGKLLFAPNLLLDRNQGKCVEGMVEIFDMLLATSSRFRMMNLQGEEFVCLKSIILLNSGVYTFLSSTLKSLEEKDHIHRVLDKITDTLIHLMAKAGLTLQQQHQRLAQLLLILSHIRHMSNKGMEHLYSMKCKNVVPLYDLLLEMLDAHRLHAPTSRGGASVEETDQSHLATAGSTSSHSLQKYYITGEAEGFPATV

[23] = drug delivery studies; cited from earlier work
[24] = cited from earlier work; remark: listed apart in the source
[25] = in vivo; cited from earlier work

SMILES: Oc1ccc([C@H]2COc3cc(O)ccc3C2)cc1 (racemic) [Equol, equol]
- transcriptional activity of ERR γ [1]: enhanced
- Even Skin Tone, Self-Assessment Questionnaire efficacy [2]: 70%
- Frown Lines/Wrinkles, Self-Assessment Questionnaire efficacy [2]: 72%
- Hydration, Self-Assessment Questionnaire efficacy [2]: 71%
- Pore Size, Self-Assessment Questionnaire efficacy [2]: 51%
- Radiance/Brightness, Self-Assessment Questionnaire efficacy [2]: 73%
- Skin Firmness, Self-Assessment Questionnaire efficacy [2]: 77%
- Smoothness, Self-Assessment Questionnaire efficacy [2]: 62%
- Spots/Discoloration, Self-Assessment Questionnaire efficacy [2]: 55%
- epidermal and dermal components and epidermal/dermal borders (histology) [3]: intact and healthy
- number of human skin biomarkers/genes significantly altered [4]: 39
- relative percent cell viability, dermal layer only (MTT) ([5]; human): around 100%
- relative percent cell viability, full thickness cultures (MTT) ([6]; human): around 100%
- skin penetration profile, peak time [7]: around 8 hours
- sustained release after the initial application [7]: up to 28 hours
- circulates in the free or unbound form in plasma [8]: approximately 50%

SMILES: Oc1ccc(C2COc3cc(O)ccc3C2)cc1 (racemic) [Racemic Equol, equol]
- Inhibits MMPs [9]: Yes, to moderate
- Binds/Activates Estrogen Related Receptor gamma (γ) [1]: Yes
- Inhibits 5α-Reductase Enzyme (type 1 in skin) [10]: Yes
- Inhibits NFkappB [11]: Yes, high inhibition
- Stimulates Collagen [12]: Yes
- Stimulates TIMPI [13]: Yes
- Inhibits Elastase [14]: Yes
- Inhibits Inflammatory Molecules [15]: Yes, high inhibition
- IC50 ([16]; read-out: Binds Estrogen Receptor Beta (β), IC50): 200 nM
- Stimulates Elastin [17]: Yes
- Oral Metabolism in Humans (pharmacokinetics compared to each other) [18]: Similar
- Binds Nrf2/activates other antioxidants [19]: Yes
- TPA-induced activation of AP-1 [20]: dose-dependently attenuated
- Stimulates Growth Factors [21]: Yes, to moderate
- IC50 ([22]; read-out: Binds Estrogen Receptor Alpha (α), IC50): 1500 nM

SMILES: C=C(C)[C@@H]1CCC(C)=C[C@H]1c1c(O)cc(CCCCC)cc1O [CBD, cannabidiol]
- epidermal and dermal components and epidermal/dermal borders (histology) [3]: intact and healthy
- relative percent cell viability, dermal layer only (MTT) ([5]; FIG. 16): around 100%
- relative percent cell viability, full thickness cultures (MTT) ([6]; FIG. 15): around 100%

SMILES: Oc1ccc([C@@H]2COc3cc(O)ccc3C2)cc1 [R-Equol, R-equol]
- Inhibits 5α-Reductase Enzyme (type 1 in skin) [10]: Yes
- Stimulates Collagen [12]: Yes
- more stable isomer, R-equol vs. S-equol [23]: more stable isomer
- Stimulates TIMPI [13]: No, or at very low
- Inhibits Inflammatory Molecules [15]: Yes, high inhibition
- affinity for ERβ [16]: weak affinity
- Ki [16]: 15.4 nM
- Stimulates Elastin [17]: Yes
- Oral Metabolism in Humans (pharmacokinetics compared to each other) [18]: Similar
- Stimulates Growth Factors [21]: Yes, to high levels
- affinity for ER alpha [22]: weak affinity
- Ki [22]: 27.4 nM

SMILES: Oc1ccc([C@H]2COc3cc(O)ccc3C2)cc1 [S-Equol, S-equol]
- Inhibits MMPs [9]: Yes, to low levels of
- Inhibits 5α-Reductase Enzyme (type 1 in skin) [10]: No
- Stimulates Collagen [12]: Yes
- Stimulates TIMPI [13]: Yes
- Inhibits Inflammatory Molecules [15]: Yes, low inhibition
- binding to estrogen receptor beta relative to 17β-estradiol ([16]; as well as 17β-estradiol): approximately ⅕
- Ki [16]: 6.4 nM
- Stimulates Elastin [17]: No
- Oral Metabolism in Humans (pharmacokinetics compared to each other) [18]: Similar
- Stimulates Growth Factors [21]: Yes, to low levels
- affinity for ER alpha [22]: low affinity
- Ki [22]: 15.4 nM

SMILES: CCCCCc1cc(O)c2c(c1)OC(C)(C)[C@@H]1CCC(C)=C[C@@H]21 [THC, tetrahydrocannabinol]
- solubility in most organic solvents ([24]; organic solvents, particularly lipids and alcohols): good solubility
- solubility in water ([24]; water): low solubility

SMILES: CC1=C(/C=C/C(C)=C/C=C/C(C)=C/C=C/C=C(C)/C=C/C=C(C)/C=C/C2=C(C)C(=O)[C@@H](O)CC2(C)C)C(C)(C)C[C@H](O)C1=O [astaxanthin, reference compound]
- number of human skin biomarkers/genes significantly altered [4]: 6

SMILES: O=c1c(-c2ccc(O)cc2)coc2cc(O)ccc12 [daidzein, reference compound]
- transcriptional activity of ERR γ [1]: did not have this effect
- intestinal absorption levels [25]: 30-40%
- TPA-induced activation of AP-1 [20]: did not exert any effect

SMILES: O=c1c(-c2ccc(O)cc2)coc2cc(O)cc(O)c12 [genistein]
- intestinal absorption levels [25]: 15-20%
